The source made the active and inactive calls. No cut-off for these calls is given here.
Experiments:
[1] = target: Receptor-type tyrosine-protein kinase FLT3 (Homo sapiens) (UniProt P36888); assay: Inhibition of FLT3 in human MV4-11 cells assessed as inhibition of ERK phosphorylation at Thr202/Tyr204 residue incubated for 4 hrs by western blot analysis; type: cell-based; details: dose 0.1-100 nM
[2] = MRT (0 to t) in Sprague-Dawley rat at 10 mg/kg, po measured for 24 hrs by LC-MS/MS analysis; type: ADME, organism-based; details: in vivo
THP-1 = assay: Antiproliferative activity against human THP-1 cells assessed as reduction in cell viability measured after 72 hrs by CellTiterGlo luminescent assay; type: functional, cell-based; details: THP-1, 72 h
[3] = Toxicity in ICR mouse assessed as effect on animal's survival rate at 100 mg/kg, iv administered as single dose and measured for 14 days; type: organism-based; details: in vivo, 336 h, time 14 day
MV4-11 [4] = assay: Induction of apoptosis in human MV4-11 cells assessed as necrotic cells at 100 nM incubated for 24 hrs by AnnexinV-FITC/PI staining based flow cytometry (reference value: 0.45%); type: functional
[5] = Antiproliferative activity against mouse HCD-57 cells assessed as reduction in cell viability measured after 72 hrs by CellTiterGlo luminescent assay; type: toxicity, cell-based; details: hcd-57, 72 h
[6] = Ratio of IC50 for antiproliferative activity against mouse BaF3 cells harboring FLT3-ITD-Y842H mutant to IC50 for antiproliferative activity against mouse BaF3 cells harboring FLT3-ITD mutant; type: functional
HCD-57 = assay: Antiproliferative activity against mouse HCD-57 cells harboring FLT3-ITD mutant assessed as reduction in cell viability measured after 72 hrs by CellTiterGlo luminescent assay; type: functional, cell-based
[7] = Tmax in Sprague-Dawley rat at 10 mg/kg, po measured for 24 hrs by LC-MS/MS analysis; type: ADME, organism-based; details: in vivo
MV4-11 [8] = assay: Antitumor activity against human MV4-11 cells xenografted in BALB/c mouse assessed as inhibition rate of tumor weight at 15 mg/kg, iv BID for 21 days by vernier caliper analysis; type: functional; details: MV4-11, 504 h, time 21 day
HCT-116 = assay: Antiproliferative activity against human HCT-116 cells assessed as reduction in cell viability measured after 72 hrs by CellTiterGlo luminescent assay; type: functional, cell-based; details: HCT-116, 72 h
[9] = target: Receptor-type tyrosine-protein kinase FLT3 (Homo sapiens) (UniProt P36888); assay: Inhibition of FLT3 in human MV4-11 cells assessed as inhibition of FLT3 phosphorylation at Tyr589/591 residue at 10 nM incubated for 4 hrs by western blot analysis; type: cell-based
MDA-MB-231 = assay: Antiproliferative activity against human MDA-MB-231 cells assessed as reduction in cell viability measured after 72 hrs by CellTiterGlo luminescent assay; type: functional, cell-based; details: MDA-MB-231, 72 h
[10] = Toxicity in BALB/c mouse xenografted with human MV4-11 cells assessed as morphological changes in lung at 15 mg/kg, iv for 21 days by H and E staining based analysis; type: organism-based; details: in vivo, 504 h, time 21 day
BaF3 [11] = type: functional, cell-based; details: Mus musculus, BaF3, 72 h
[12] = Antiproliferative activity against mouse BaF3 cells assessed as reduction in cell viability measured after 72 hrs by CellTiterGlo luminescent assay; type: toxicity, cell-based
[13] = Toxicity in BALB/c mouse xenografted with human MV4-11 cells assessed as change in body weight at 15 mg/kg, iv QD for 21 days; type: organism-based; details: in vivo, 504 h, time 21 day
[14] = Volume of distribution at steady state in Sprague-Dawley rat at 1 mg/kg, iv measured for 24 hrs by LC-MS/MS analysis; type: ADME, organism-based; details: in vivo, read-out: Vdss
[15] = test system: Receptor-type tyrosine-protein kinase FLT3 (Homo sapiens), P36888 [UNDEFINED MUTATION]; type: cell-based; details: BaF3, dose 0.1-100 nM, time 4.0 hrs
Chain of Receptor-type tyrosine-protein kinase FLT3 (Homo sapiens), P36888 [UNDEFINED MUTATION] (P36888 whole entry, looked up, stated change not applied): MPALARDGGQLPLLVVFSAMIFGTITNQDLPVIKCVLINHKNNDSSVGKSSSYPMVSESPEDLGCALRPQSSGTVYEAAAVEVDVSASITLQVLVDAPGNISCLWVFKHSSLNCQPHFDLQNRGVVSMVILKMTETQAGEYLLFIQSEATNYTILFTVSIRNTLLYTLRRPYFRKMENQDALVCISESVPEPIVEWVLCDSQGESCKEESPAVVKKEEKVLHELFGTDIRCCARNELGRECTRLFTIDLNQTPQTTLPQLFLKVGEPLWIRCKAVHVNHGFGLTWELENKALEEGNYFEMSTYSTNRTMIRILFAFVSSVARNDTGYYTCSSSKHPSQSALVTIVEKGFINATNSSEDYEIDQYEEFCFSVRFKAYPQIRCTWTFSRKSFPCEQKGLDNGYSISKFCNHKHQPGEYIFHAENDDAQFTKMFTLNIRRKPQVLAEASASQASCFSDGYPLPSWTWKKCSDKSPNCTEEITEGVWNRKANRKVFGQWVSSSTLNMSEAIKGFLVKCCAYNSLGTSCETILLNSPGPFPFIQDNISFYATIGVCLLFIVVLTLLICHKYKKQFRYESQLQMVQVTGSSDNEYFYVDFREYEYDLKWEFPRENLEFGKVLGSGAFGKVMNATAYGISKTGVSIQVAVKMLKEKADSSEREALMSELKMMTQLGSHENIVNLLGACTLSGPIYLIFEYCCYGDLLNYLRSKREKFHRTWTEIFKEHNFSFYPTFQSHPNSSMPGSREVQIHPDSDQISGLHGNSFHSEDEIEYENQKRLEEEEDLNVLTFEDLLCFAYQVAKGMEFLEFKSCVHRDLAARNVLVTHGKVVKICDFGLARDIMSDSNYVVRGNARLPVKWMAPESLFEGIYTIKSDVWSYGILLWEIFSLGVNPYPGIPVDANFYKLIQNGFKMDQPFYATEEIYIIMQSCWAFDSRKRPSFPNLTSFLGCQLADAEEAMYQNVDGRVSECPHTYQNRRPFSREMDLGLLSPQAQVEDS

U-937 = assay: Antiproliferative activity against human U-937 cells assessed as reduction in cell viability measured after 72 hrs by CellTiterGlo luminescent assay; type: functional, cell-based; details: U-937, 72 h
[16] = Oral bioavailability in Sprague-Dawley rat at 10 mg/kg measured for 24 hrs by LC-MS/MS analysis; type: ADME, organism-based; details: in vivo
BaF3 [17] = assay: Antiproliferative activity against mouse BaF3 cells harboring FLT3-ITD-F691L mutant assessed as residual cell viability at 50 nM incubated for 72 hrs by CellTiterGlo luminescent assay; type: functional
MV4-11 [18] = assay: Induction of apoptosis in human MV4-11 cells assessed as viable cells at 50 nM incubated for 24 hrs by AnnexinV-FITC/PI staining based flow cytometry (reference value: 92.3%); type: functional; details: read-out: Activity
[19] = Toxicity in BALB/c mouse xenografted with human MV4-11 cells assessed as morphological changes in heart at 15 mg/kg, iv for 21 days by H and E staining based analysis; type: organism-based; details: in vivo, 504 h, time 21 day
BaF3 [20] = assay: Antiproliferative activity against mouse BaF3 cells harboring FLT3-ITD-N676D mutant assessed as reduction in cell viability measured after 72 hrs by CellTiterGlo luminescent assay; type: functional, cell-based; details: BaF3, 72 h
BaF3 [21] = assay: Antiproliferative activity against mouse BaF3 cells harboring FLT3-ITD-F691L mutant assessed as residual cell viability at 10 nM incubated for 72 hrs by CellTiterGlo luminescent assay; type: functional
MV4-11 [22] = assay: Induction of apoptosis in human MV4-11 cells assessed as late apoptotic cells at 10 nM incubated for 24 hrs by AnnexinV-FITC/PI staining based flow cytometry (reference value: 4.2%); type: functional
[23] = Toxicity in BALB/c mouse xenografted with human MV4-11 cells assessed as platelet count at 15 mg/kg, iv for 21 days; type: organism-based; details: in vivo, 504 h, time 21 day
[24] = Ratio of IC50 for antiproliferative activity against mouse BaF3 cells harboring FLT3-ITD-F691L mutant to IC50 for antiproliferative activity against mouse BaF3 cells harboring FLT3-ITD mutant; type: functional
MV4-11 [25] = assay: Induction of apoptosis in human MV4-11 cells assessed as viable cells at 10 nM incubated for 24 hrs by AnnexinV-FITC/PI staining based flow cytometry (reference value: 92.3%); type: functional; details: read-out: Activity
A549 = assay: Antiproliferative activity against human A549 cells assessed as reduction in cell viability measured after 72 hrs by CellTiterGlo luminescent assay; type: functional, cell-based; details: A549, 72 h
MV4-11 [26] = assay: Induction of apoptosis in human MV4-11 cells assessed as viable cells at 100 nM incubated for 24 hrs by AnnexinV-FITC/PI staining based flow cytometry (reference value: 92.3%); type: functional; details: read-out: Activity
[27] = Toxicity in BALB/c mouse xenografted with human MV4-11 cells assessed as white blood cell count at 15 mg/kg, iv for 21 days; type: organism-based; details: in vivo, 504 h, time 21 day
BaF3 [28] = assay: Antiproliferative activity against mouse BaF3 cells harboring FLT3-ITD-Y842H mutant assessed as reduction in cell viability measured after 72 hrs by CellTiterGlo luminescent assay; type: functional, cell-based; details: BaF3, 72 h
[29] = target: Receptor-type tyrosine-protein kinase FLT3 (Homo sapiens) (UniProt P36888); assay: Inhibition of FLT3 in human MV4-11 cells assessed as inhibition of STAT5 phosphorylation at Tyr694 residue at 10 nM incubated for 4 hrs by western blot analysis; type: cell-based
[30] = target: Receptor-type tyrosine-protein kinase FLT3 (Homo sapiens) (UniProt P36888); assay: Inhibition of FLT3 in human MV4-11 cells assessed as inhibition of FLT3 phosphorylation at Tyr589/591 residue incubated for 4 hrs by western blot analysis; type: cell-based; details: dose 0.1-100 nM

Chain of Receptor-type tyrosine-protein kinase FLT3 (Homo sapiens) (P36888 whole entry): as the sequence (P36888 whole entry, looked up, stated change not applied) above

CCN1CCN(c2ccc(C(=O)Nc3cc(-c4ccc5ncn(Cc6c(Cl)cccc6Cl)c5c4)[nH]n3)cc2)CC1
inhibition [1]: Dose-Dependent Effect
MRT last at 24 h [2]: 3.63 h
IC50 (THP-1): > 5 µM
Activity [3]: Non-Toxic
Activity (MV4-11 [4]): 0.61%
Activity [5]: Non-Toxic
Ratio IC50 [6]: <0.2
Activity (HCD-57): Active
Tmax [7]: 1.33 h
inhibition in vivo at 15 mg/kg (MV4-11 [8]): 85.2%
IC50 (HCT-116): > 10 µM
inhibition [9]: 100%
IC50 (MDA-MB-231): 3.85 µM
Activity [10]: Non-Toxic
IC50 (BaF3 [11]): < 0.0015 µM
IC50 at 72 h [12]: 4.09 µM
Activity [13]: Non-Toxic
Vd [14]: 6.27 L/kg
inhibition [15]: Dose-Dependent Effect
IC50 (U-937): > 2 µM
bioavailability [16]: 1.3%
Activity (BaF3 [17]): 2.54%
viability at 0.05 µM (MV4-11 [18]): 61.5%
Activity [19]: Non-Toxic
IC50 (BaF3 [20]): 0.0424 µM
Activity (BaF3 [21]): 43.16%
Activity (MV4-11 [22]): 20.5%
Activity [23]: Non-Toxic
Ratio IC50 [24]: 1.09
viability at 0.01 µM (MV4-11 [25]): 67.9%
IC50 (A549): 3.66 µM
viability at 0.1 µM (MV4-11 [26]): 59.7%
Activity [27]: Non-Toxic
IC50 (BaF3 [28]): < 0.0015 µM
inhibition [29]: 100%
inhibition [30]: Dose-Dependent Effect

From ChEMBL document CHEMBL5226341, “Discovery of a Potent FLT3 Inhibitor (LT-850-166) with the Capacity of Overcoming a Variety of FLT3 Mutations” (J Med Chem, 2021)
